Earlier results, collected in US20140107223A1, “TOPICAL UBIQUINOL SUPPLEMENT SKIN CARE COMPOSITIONS” (WHITEHILL ORAL TECHNOLOGIES, INC., priority 2012, published 2014).

What was measured:
CRP concentrations = conditions: dietary supplementation, healthy baboons
[1] = topical once weekly via syringe for six weeks, combined with mechanical debridement
[2] = 150 mg capsule/day for two months
[3] = system: human monocytic cellline THP-1; conditions: LPS-stimulated THP-1
[4] = not given; remark: listed apart in the source

| Compound | baseline inflammatory status indicated by CRP concentrations (CRP concentrations) | bleeding on probing [1] | effect on oral environment for periodontal disease [2] | effect on inflammatory cytokines and chemokines in vitro [3] | water solubility | bioavailability versus ubiquinone ([4]; oral) | time to steady-state concentrations ([4]; oral administration) | time required to reach peak concentration ([4]; oral administration, absorption from the gastrointestinal tract) | peak blood values ([4]; oral, 150 mg per day in a softgel, within 28 days) |
| --- | --- | --- | --- | --- | --- | --- | --- | --- | --- |
| COC1=C(OC)C(=O)C(C/C=C(\C)CC/C=C(\C)CC/C=C(\C)CC/C=C(\C)CC/C=C(\C)CC/C=C(\C)CC/C=C(\C)CC/C=C(\C)CC/C=C(\C)CCC=C(C)C)=C(C)C1=O [CoQ10, coenzyme Q10] | significantly enhances this anti-inflammatory effect | no bleeding at six weeks |  |  |  |  |  |  |  |
| COc1c(O)c(C)c(C/C=C(\C)CC/C=C(\C)CC/C=C(\C)CC/C=C(\C)CC/C=C(\C)CC/C=C(\C)CC/C=C(\C)CC/C=C(\C)CC/C=C(\C)CCC=C(C)C)c(O)c1OC [UBIQUINOL] |  |  | is effective in improving oral environment for periodontal disease | anti-inflammatory effects | less than 0.1 mg/ml | greater bioavailability than ubiquinone | two | approximately 6 hours | 3.84 µg/mL |
| Vitamin E | reduces baseline inflammatory status |  |  |  |  |  |  |  |  |
